Source: publication PMC10187092 (Emerging Microbes & Infections, 2023)

Key:
[1] = target: SARS-CoV-2 3CLpro (Severe acute respiratory syndrome coronavirus 2, UniProt P0DTD1); format: cell-based
[2] = target: SARS-CoV-2 3CLpro (wild-type) (Severe acute respiratory syndrome coronavirus 2, UniProt P0DTD1); format: cell-based

| Compound | rescue of reporter expression in 3CLpro transfected cells [1] | potency in dose-response validation [2] | inhibition of 3CLpro [2] |
| --- | --- | --- | --- |
| Ac-DEVD-CHO | failed to rescue reporter expression |  |  |
| CCO[C@@H]1OC(=O)C[C@@H]1NC(=O)[C@@H]1CCCN1C(=O)[C@@H](NC(=O)c1ccc(N)c(Cl)c1)C(C)(C)C [Belnacasan] | failed to rescue reporter expression |  |  |
| CC(C)(C)NC(=O)N[C@H](C(=O)N1C[C@H]2[C@@H]([C@H]1C(=O)NC(CC1CCC1)C(=O)C(N)=O)C2(C)C)C(C)(C)C (stereo partly drawn) [Boceprevir] |  | weak to moderate potency |  |
| Cc1ccc(NC(=O)c2ccc(CN3CCN(C)CC3)cc2)cc1Nc1nc(-c2cccnc2)cs1 [Masitinib] |  |  | negative |
| O=c1c2ccccc2[se]n1-c1ccccc1 [Ebselen] |  |  | no inhibition |
| Z-FA-FMK |  | weak to moderate potency |  |
